Tests used:
FGFR2 = FGFR2 (Homo sapiens (Human), UniProt P21802); assay: FGFR2 kinase activity at the molecular level (ELISA, Poly(Glu,Tyr) 4:1 substrate); format: biochemical; conditions: kinase domain recombinant protein, 5 μM ATP
Protocol: (§1) 100 μL/well of 2 mg/mL OPD developing solution (diluted with 0.1M citric acid-sodium citrate buffer containing 0.03% H2O2 (pH=5.4)), and reacted in dark for 1-10 minutes at 25° C.

FGFR3 = FGFR3 (Homo sapiens (Human), UniProt P22607); assay: FGFR3 kinase activity at the molecular level (ELISA, Poly(Glu,Tyr) 4:1 substrate); format: biochemical; conditions: kinase domain recombinant protein, 5 μM ATP
Chain of FGFR3 (P22607 472-761): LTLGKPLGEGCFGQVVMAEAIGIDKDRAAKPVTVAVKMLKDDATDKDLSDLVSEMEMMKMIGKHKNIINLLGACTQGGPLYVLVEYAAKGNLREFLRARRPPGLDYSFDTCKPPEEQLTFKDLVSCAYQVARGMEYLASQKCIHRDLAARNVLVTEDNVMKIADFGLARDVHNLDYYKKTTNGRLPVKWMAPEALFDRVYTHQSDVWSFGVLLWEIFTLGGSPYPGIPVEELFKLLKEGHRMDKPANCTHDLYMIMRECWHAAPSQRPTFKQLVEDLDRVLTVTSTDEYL
Protocol: as §1

[1] = system: acute myelogenous leukemia cell strain KG1; assay: Growth inhibition of FGFR1-dependent KG1 cells (CCK-8); format: cell-based; conditions: Homo sapiens, KG-1, 72 h treatment
Protocol: The growth inhibition of the acute myelogenous leukemia cell strain KG1 (FGFR1-dependent tumor cell strain; the FGFR1 fusion protein in the cell was expressed in the cytoplasm; purchased from ATCC cell bank) by the compounds was detected with CCK-8 cell count kit (Dojindo). The specific steps are as follows: KG1 cells in logarithmic growth phase were seeded onto a 96-well culture plate in appropriate density, 90 ul per well. After overnight culture, different concentrations of compounds were added and the treatment continued for 72 h, and solvent control group (negative control) was set. After treatment for 72 h, the effect of the compounds on cell proliferation was observed by CCK-8 cell counting kit (Dojindo). 10 μL of CCK-8 reagent was added to each well. After incubated for 2-4 hours in a 37 □ incubator, read with SpectraMax 190 microplate reader at 450 nm wavelength. The inhibition rate (%) of the compounds on tumor cell growth was calculated using the following formula: Inhibition rate (%)=(OD negative control well-OD administered well)/OD negative control well×100%.

FGFR1 = FGFR1 (Homo sapiens (Human), UniProt P11362); assay: FGFR1 kinase activity at the molecular level (ELISA, Poly(Glu,Tyr) 4:1 substrate); format: biochemical; conditions: kinase domain recombinant protein, 5 μM ATP
Chain of FGFR1 (P11362 478-767): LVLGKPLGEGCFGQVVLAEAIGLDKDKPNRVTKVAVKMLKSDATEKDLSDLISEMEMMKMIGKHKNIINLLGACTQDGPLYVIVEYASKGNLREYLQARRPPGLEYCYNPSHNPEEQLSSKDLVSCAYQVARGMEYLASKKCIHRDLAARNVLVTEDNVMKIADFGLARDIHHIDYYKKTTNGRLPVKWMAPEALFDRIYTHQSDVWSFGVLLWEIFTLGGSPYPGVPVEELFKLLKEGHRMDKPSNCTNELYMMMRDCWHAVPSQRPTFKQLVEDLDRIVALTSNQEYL
Protocol: as §1

Chain of FGFR2 (P21802 481-770): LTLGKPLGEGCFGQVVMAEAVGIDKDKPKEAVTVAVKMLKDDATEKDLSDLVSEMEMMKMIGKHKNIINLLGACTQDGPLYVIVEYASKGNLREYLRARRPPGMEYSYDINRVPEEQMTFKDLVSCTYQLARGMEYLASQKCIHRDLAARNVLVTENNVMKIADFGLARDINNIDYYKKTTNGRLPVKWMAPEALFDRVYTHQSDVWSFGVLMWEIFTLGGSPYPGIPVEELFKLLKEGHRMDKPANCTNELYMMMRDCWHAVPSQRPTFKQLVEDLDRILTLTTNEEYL

Row | IC50 (FGFR2) [nM] | IC50 (FGFR3) [nM] | IC50 [1] [nM] | IC50 (FGFR1) [nM] | SMILES
1 | < 100 | < 100 | 200 to 1000 | < 100 | COc1cc(OC)c(Cl)c(-c2ccc3c(NC(=O)c4ccc(CN5CCN(C(C)=O)CC5)cc4)n[nH]c3c2)c1Cl [Example 19, 4-((4-acetyl-1-yl)methyl)-N-(6-(2,6-dichloro-3,5-dimethoxyphenyl)-1H-indazole-3-yl)benzamide]
2 | < 100 | < 100 | 200 to 1000 | < 100 | COc1cc(OC)c(Cl)c(-c2ccc3c(NC(=O)c4ccc(N5CCOCC5)cc4)n[nH]c3c2)c1Cl [Example 17, N-(6-(2,6-dichloro-3,5-dimethoxyphenyl)-1H-indazole-3-yl)-4-morpholino benzamide]
